Data published in patent publication US20260109721A1, “IONIZABLE CATIONIC LIPIDS INCORPORATING SILICON: SYNTHESIS AND LNP FORMULATION” (priority 2023, published 2026).

What was measured:
[1] = LNP size, PDI and zeta potential by Dynamic Light Scattering (Method A); assay type: physicochemical; conditions: LNP formulated with the lipid, DLS
Method: (§1) The synthesized lipids were tested in term of in vitro transfection efficacy and toxicity on HeLa cells. In order to perform the mentioned biological tests, appropriate LNPs had to be formulated from the synthesized lipids. The formulation technique was different in Method A and B. The particle size, polydispersity index (PDI) and zeta potential of resulting LNPs were determined by means of Dynamic Light Scattering technique (DLS). Prior to biological testing the encapsulation efficiency (EE) of the loaded LNPs was determined by using RiboGreen RNA assay. In case of Method A Luc mRNA while in case of Method B GFP mRNA was transfected into the cells. In parallel with the transfection experiments, toxicity of the investigated LNPs was determined, in case of Method A resazurin assay while in case of Method B MTT assay was used. Additionally, the toxicity of the lipids was investigated on HepG2 cells and IC50 values were determined.
• 1. If needed, prepare stock solutions by solving known amounts of lipid powder into an appropriate solvent. The recommended solvent is ethanol and the recommended concentration is typically in the range 10-50 mM. Higher concentrations are preferred to allow flexibility on mRNA-LNP concentration. • 2. Remove the lipid stock solutions from the −20° C. freezer. For long-term storage, −80° C. is used. • 3. Check the vials for precipitation, DOPE (CAS #4004-05-1) (20 mM) and DSPE-PEG (CAS #474922-26-4) (5 mM) may need a 5-30 minute incubation step at 37° C. with intermittent vortexing to resuspend all contents. […] As a last resort, lipids may be heated to 50° C. to resuspend, time should be kept as short as possible to prevent oxidation or other modifying or degradative processes. • 4. Mix the lipids by vortexing for 2 minutes. • 5. […] Cooling the solution prevent excessive evaporation of ethanol or similar solvents upon opening. • 6. Meanwhile, thaw the RNA samples, including the latest SecNLuc control, by inserting the frozen tube in a room temperature aluminium block. • 7. Prepare for each LNP-formulation with identical mRNA component, an RNA master mix according to Table 1 below in a fresh tube. Use of a master mix allows more precise comparison of lipid formulations relative to each other. Split the master mix over a number of fresh tubes equal to the number of samples+controls. Each tube contains 375 μl of mRNA in 10 mM Citrate pH 4.0. • 8. Prepare for each LNP formulation with identical lipid composition a Lipid master mix according to Table 1 below in a fresh tube, exclude the lipid of interest. Use of a master mix allows more precise comparison of the novel ionizable lipid relative to each other. Split the master mix over a number of fresh tubes equal to the number of samples+controls. Each tube contains 65.5 μl of lipid master mix. • 9. Add the ionizable lipid of interest to the equally divide lipid master mix. Mix well by pipetting up and down. Label the tube according to the ionizable lipid used. • 10. Power on the L1 FM (L1 Formulation Machine uses 2 high-speed syringe pumps to mix lipids in organic solvents with mRNA in acidic aquous solution to generate well-defined LNPs. The microfluidic mixing chip involves a dean-type structure performing the high-efficiency mixing at a total flow rate (TFR) of around 12 ml/min at a 3:1 mixing ratio) and allow it to do a calibration of motor positions.
• 18. Fill a fresh syringe (C) through a blunt 18G stainless steel needle with the previously prepared RNA mixture of step 6. The volume should be approximately 85% of total formulation volume+25 μl (dead-volume). Make sure to remove all air bubbles by tapping. • 19. Fill a fresh syringe (D) through a blunt 18G stainless steel needle with the Lipid master mix. The volume should be approximately […] of total formulation volume+25 μl (dead-volume). Again, Make sure to remove all bubbles. • 20. Attach the syringes in the correct orientation, syringe A on the left and syringe B on the right • 21.

[2] = tested on: HeLa cells; experiment: Transfection efficiency with Luciferase (SecNLuc) mRNA, Nano-Glo assay (Method A); assay type: cell-based; conditions: Luc mRNA, 24 h, luminescence; for Transfection 10 ng mRNA: 10 ng mRNA/well; for Transfection 50 ng mRNA: 50 ng mRNA/well; for Transfection 100 ng mRNA: 100 ng mRNA/well
Method: as §1
• 1. Prepare mRNA solution by adding 100 ng mRNA (SecNLuc, #P009024, RiboPro) to 5 μl Opti-MEM • multiply by number of wells, include different concentrations and add 10% extra • a standard set-up we use is 100 ng-50 ng-10 ng mRNA/well in triplicate, which would need […] mRNA (includes 10% extra)
• 2. (If applicable) Prepare different concentrations in Opti-MEM (for instance 100/50/10 ng). • 3. Add 10 μl to each well and mix carefully by pipetting. • 4. Mix by swirling the plate horizontally at modest speed. Reverse in direction 3 times. • 5. Incubate for 24 hours (incubator).
This protocol is applied to measure luciferase activity for secreted NanoLuc and is based on the protocol by Promega (Nano-Glo® Luciferase Assay System #N1110-1150). The protocol is designed for a 384-wells plate, but volumes can be changed accordingly for other plates.
• 1. Plate cells (HeLa) in 96-well plate, grow until 80% confluent and transfect with SecNanoLuc mRNA and incubate for the desired period (24 h). • 2. After incubation, the translated protein is accumulated in the medium. Transfer medium to a new plate or tubes. • 3. Transfer 12 μl of each sample to a black-walled, clear-bottom 384-well plate • Black-walled plates are important to prevent shine-through of luminescence from other wells; alternatively, multiple wells between samples can be left empty. • 4. Set-up plate reader • 5. Prepare the desired amount of Nano-Glo® Luciferase Assay Reagent by combining one volume of Nano-Glo® Luciferase Assay Substrate with 50 volumes of Nano-Glo® Luciferase Assay Buffer: • a. composition: 100 mM MES pH 6; 1 mM EDTA; […]; 150 mM KCl; 1 mM DTT; 35 mM Thiourea; • b. briefly spin tubes containing substrate in a microcentrifuge before use. • 6. Add and mix (by pipetting) 12 μl Nano-Glo® Luciferase Assay Reagent per well • Wait approximately 3 minutes before measuring luminescence. […] Measure luminescence in plate reader using standard protocol luciferase (this includes mixing sample in plate reader)

| Compound | PDI [1] | Size (nm) [1] [nm] | Zeta potential (mV) [1] [mV] | Transfection 10 ng mRNA [2] | Transfection 50 ng mRNA [2] | Transfection 100 ng mRNA [2] |
| --- | --- | --- | --- | --- | --- | --- |
| CCCCC/C=C\C/C=C\CCCCCCCCOC(CCCCCCC/C=C\C/C=C\CCCCC)O[Si](C)(C)OCCCCCCN(CCCCO)CCCCO (stereo not drawn) [Example 62, (25Z,28Z)-15-((8Z,11Z)-heptadeca-8,11-dien-1-yl)-5-(4-hydroxybutyl)-13,13-dimethyl-12,14,16-trioxa-5-aza-13-silatetratriaconta-25,28-dien-1-ol] | 0.13 | 236.8 | −10.74 | 1.95E+05 | 8.70E+05 | 1.68E+06 |
| CCCCC/C=C\C/C=C\CCCCCCCCOC(CCCCCCC/C=C\C/C=C\CCCCC)O[Si](C)(C)OCCCCCCN1CCCCC1CO (stereo not drawn) [Example 64, (1-((20Z,23Z)-10-((8Z,11Z)-heptadeca-8,11-dien-1-yl)-8,8-dimethyl-7,9,11-trioxa-8-silanonacosa-20,23-dien-1-yl)piperidin-2-yl)methanol] | 0.098 | 293.7 | −9.226 | 3.40E+05 | 1.89E+06 | 3.78E+06 |
| CCCCC/C=C\C/C=C\CCCCCCCCOC(CCCCCN(C)CC(O)CO)O[Si](C)(C)OCCCCCCCC/C=C\C/C=C\CCCCC (stereo not drawn) [Example 66, (22Z,25Z)-4,12,12-trimethyl-10-(((9Z,12Z)-octadeca-9,12-dien-1-yl)oxy)-11,13-dioxa-4-aza-12-silahentriaconta-22,25-diene-1,2-diol] | 0.043 | 223.6 | −11.66 | 1.06E+05 | 1.14E+06 | 3.31E+06 |
| C#CCN(C)CCCCCCO[Si](C)(C)OC(CCCCCCC/C=C\C/C=C\CCCCC)OCCCCCCCC/C=C\C/C=C\CCCCC (stereo not drawn) [Example 67, (20Z,23Z)-10-((8Z,11Z)-heptadeca-8,11-dien-1-yl)-N,8,8-trimethyl-N-(prop-2-yn-1-yl)-7,9,11-trioxa-8-silanonacosa-20,23-dien-1-amine] | 0.058 | 127.2 | −8.62 | 2.42E+04 | 4.02E+05 | 1.79E+06 |
| CCCCC/C=C\C/C=C\CCCCCCCCOC(CCCCCCC/C=C\C/C=C\CCCCC)O[Si](C)(C)OCCCCCCN(C)Cc1cn(C2[C@H](O)O[C@H](CO)[C@@H](O)[C@@H]2O)nn1 (stereo partly drawn) [Example 68, (4R,5S,6R)-3-(4-((22Z,25Z)-12-((8Z,11Z)-heptadeca-8,11-dien-1-yl)-2,10,10-trimethyl-9,11,13-trioxa-2-aza-10-silahentriaconta-22,25-dien-1-yl)-1H-1,2,3-triazol-1-yl)-6-(hydroxymethyl)tetrahydro-2H-pyran-2,4,5-triol] | 0.081 | 109.9 | −6.380 | 2.74E+02 | 1.30E+03 | 7.84E+03 |
| CCCCC/C=C\C/C=C\CCCCCCCCOC(CCCCCCC/C=C\C/C=C\CCCCC)O[Si](C)(C)OCCCCCCN1CCN(CCCCCCO[Si](C)(C)OC(CCCCCCC/C=C\C/C=C\CCCCC)OCCCCCCCC/C=C\C/C=C\CCCCC)CC1 (stereo not drawn) [Example 70, 1,4-bis((20Z,23Z)-10-((8Z,11Z)-heptadeca-8,11-dien-1-yl)-8,8-dimethyl-7,9,11-trioxa-8-silanonacosa-20,23-dien-1-yl)piperazine] | 0.061 | 171.4 | −10.47 | 6.46E+02 | 5.40E+03 | 2.07E+04 |
| CCCCC/C=C\C/C=C\CCCCCCCCOC(CCCCCCC/C=C\C/C=C\CCCCC)O[Si](C)(C)OCCCCCCN(CCO)CCN(CCO)CCCCCCO[Si](C)(C)OC(CCCCCCC/C=C\C/C=C\CCCCC)OCCCCCCCC/C=C\C/C=C\CCCCC (stereo not drawn) [Example 71, (26Z,29Z)-16-((8Z,11Z)-heptadeca-8,11-dien-1-yl)-3-((20Z,23Z)-10-((8Z,11Z)-heptadeca-8,11-dien-1-yl)-8,8-dimethyl-7,9,11-trioxa-8-silanonacosa-20,23-dien-1-yl)-6-(2-hydroxyethyl)-14,14-dimethyl-13,15,17-trioxa-3,6-diaza-14-silapentatriaconta-26,29-dien-1-ol] | 0.103 | 166.6 | −11.09 | 3.24E+04 | 9.78E+05 | 5.19E+06 |
| CCCCCCCC/C=C\CCCCCCCC(OCC(CCCCCCCC)SCCCCC)O[Si](C)(C)OCCCCCCN(CCO)CCO (stereo not drawn) [Example 72, (Z)-13-(heptadec-8-en-1-yl)-3-(2-hydroxyethyl)-11,11-dimethyl-16-octyl-10,12,14-trioxa-17-thia-3-aza-11-siladocosan-1-ol] | 0.17 | 84.37 | −14.24 | 2.05E+03 | 8.79E+04 | 3.60E+05 |
| CCCCCCCC/C=C\CCCCCCCC(OCC(CCCCCCCC)SCCCCCCCCCC)O[Si](C)(C)OCCCCCCN(CCO)CCO (stereo not drawn) [Example 73, (Z)-13-(heptadec-8-en-1-yl)-3-(2-hydroxyethyl)-11,11-dimethyl-16-octyl-10,12,14-trioxa-17-thia-3-aza-11-silaheptacosan-1-ol] | 0.16 | 86.3 | −17.46 | 6.90E+01 | 9.88E+02 | 4.08E+03 |
| CCCCCCCC/C=C\CCCCCCCC(OCCCCCCCCCCCC1CCCCC1)O[Si](C)(C)OCCCCCCN(CCO)CCO (stereo not drawn) [Example 74, (Z)-25-cyclohexyl-13-(heptadec-8-en-1-yl)-3-(2-hydroxyethyl)-11,11-dimethyl-10,12,14-trioxa-3-aza-11-silapentacosan-1-ol] | 0.19 | 73.11 | −9.76 | 2.47E+03 | 3.87E+04 | 1.11E+05 |
